Several values for one entry are separate records, joined by “and”; a condition that tells them apart may be missing. Equal values may be shown once.
Assays:
[1] = test system: L. (V.) panamensis (MHOM/COL/87/UA140-EGFP); assay: Therapeutic in vivo response in hamsters with experimental cutaneous leishmaniasis; design: species or system golden hamster (Mesocrisetus auratus)
From the text: We used a golden hamster (Mesocrisetus auratus) model to evaluate the therapeutic response of synthetic alkaloid compounds 2 and 8. Male and female 6-week-old hamsters with a mean live weight (LW) of 120 g were infected by a dorsal intradermic injection of L. (V.) panamensis (MHOM/COL/87/UA140-EGFP) promastigotes. After the infected hamsters developed ulcers, they were randomly divided into three groups (n = 6 each) and treated topically with 1% ointment formulated from compounds 2 and 8.
The hamsters were monitored every 4 weeks to assess their appearance and weight and the lesion size. We categorized each compound’s effectiveness pre- and posttreatment as follows: (i) cure (complete disappearance of lesions), (ii) improvement (>10% reduced lesion area), and (iii) therapeutic failure or nonresponse (increased lesion size). The health status was monitored weekly for 3 months (12 weeks) posttreatment. After 3 months, the hamsters were euthanized in a CO2 chamber. We performed histopathological analysis after necropsy of the affected tissues and organs. In addition, we evaluated treatment cytotoxicity using LW monitoring and biochemical parameters (alanine aminotransferase [ALT], creatinine, and blood urea nitrogen [BUN]) pretreatment and 45 days after ointment administration.
The in vivo efficacy of compounds 1, 2, and 8 was expressed as a percentage cure, improvement, or nonresponse compared to the beginning of treatment. Efficacy was evaluated in vivo to compare percentages, the frequency of change, and treatment cytotoxicity in the hamster model. We used GraphPad Prism to determine ROS and NO production and the apoptotic cell percentage. One- or two-way analysis of variance (ANOVA; response–time kinetics) was used to compare treatments after confirming normal data distribution. P < 0.05 was considered statistically significant by comparing untreated cells (experiments on untreated hMDMs) with infected cells (experiments on untreated and treated hMDMs).

[2] = test system: L. (V.) panamensis intracellular amastigotes; assay: Antileishmanial activity in L. (V.) panamensis intracellular amastigotes in hMDMs; format: cell-based, Leishmania (Viannia) panamensis
Description: Next, 100 μL of the suspension was cultured in 96-well plates and infected with L. (V.) panamensis promastigotes (HMOM/COL/87/UA-140) at a 10:1 parasite:cell ratio. We incubated the plates in a 5% CO2 atmosphere for 4 h at 35°C. After incubation, we removed noninternalized parasites by washing the cells with 0.9% NaCl saline solution (Baxter International, Deerfield, IL, USA). The cells were incubated again for 24 h and then treated with each quinoline alkaloid–like compound at a concentration of 100, 10, 1, 0.1, and 0.01 μg/mL in a 5% CO2 atmosphere for 72 h at 36°C. Next, we quantified the percentage of infected cells using fluorescence microscopy, as previously described by Pérez-Cordero in 2011 [23], and quantified the parasite load (amount of intracellular promastigotes and amastigotes per cell) using Giemsa staining and flow cytometry (Cytomics FC 500 MPL; Beckman Coulter, Brea, CA, USA). […] Results were expressed as EC50 using Prism GraphPad software’s probit nonlinear regression analysis (https://www.graphpad.com/scientific-software/prism/).
We used GraphPad Prism nonlinear regression analysis to estimate the percentage mortality with regard to CC50 and EC50. […] The antileishmanial activity with regard to promastigotes was classified as active according to Eq 2: Active=EC50<[LC50/2], (2) where LC50 is the median lethal concentration. We also used GraphPad Prism nonlinear regression analysis to determine the intracellular antileishmanial activity (concentration vs. response), depending on the infection (number of infected cells) and parasite burden (number of parasites/cell) obtained in experimental conditions. Parasite inhibition was estimated using Eq 3, where the plate MFI is 100% parasites: Infectioninhibition(%)=100−[(MIFexposedparasites/MIFunexposedparasites×100)] (3)
The percentage inhibition was used to calculate EC50 by nonlinear regression analysis (fluorescence microscopy), while the parasite burden was evaluated as the percentage of intracellular promastigotes and amastigotes in 100 infected cells (Giemsa staining). […] The selectivity index (SI) was estimated using the following formula: SI=CC50/EC50

[3] = hamsters, topical 1% ointment, 3 months posttreatment, n = 6
[4] = amastigotes in hMDMs, 72 h, ± SD

**Q.** What does the source list for “1,2,3,4-tetrahydro(benzo)-3-quinolin-ol [Compound 2]”?
**A.** Histopathologic analysis of the skin, cured hamsters ([1]; hamsters cured by treatment, hematoxylin/eosin): moderate orthokeratotic hyperkeratosis and low mononuclear leukocyte infiltration; Histopathologic analysis of the skin, hamsters showing improvement ([1]; hamsters showing improvement, hematoxylin/eosin): severe leukocyte infiltratation and abundant L. (V.) panamensis being phagocytosed by hMDMs; Lesion size during treatment ([1]; hamsters, topical 1% ointment): significantly reduced lesions; Improvement (reduced lesion size), percentage of the experimental group [1, 3]: 66.6%; Total cure (healing), percentage of the experimental group [1, 3]: 33.3%; SI (selectivity index = CC50/EC50) ([2]; CC50 hMDMs / EC50 intracellular amastigotes): 3.64 and > 3; EC50 [2, 4]: 26 µM; EC50 Intracellular amastigotes [2, 4]: 5.2 ± 0.9 µg/mL; Antileishmanial activity class ([2]; intracellular amastigotes, class by EC50): high (high if EC50 < 25 μg/mL)

Reference: article PMC7769561, “Antileishmanial activity of synthetic analogs of the naturally occurring quinolone alkaloid N-methyl-8-methoxyflindersin” (PLoS ONE, 2020)
